In US10835537B2, “Combination therapies for treatment of cancer” (Sumitomo Dainippon Pharma Oncology, Inc., priority 2015, dated 2020):

What was measured:
MV 4-11 cells = experiment: Cell viability, Cell titer-glo assay; assay type: cell-based; conditions: for EC50: Homo sapiens, MV4-11, MV 4-11 cells, wash
Procedure: MV 4-11 cells were dosed first with alvocidib (80 nM) or DMSO for 24 hours followed by a wash step. Following the wash step, the cells were dosed with azacitidine (30 μM to 0.001 μM) for an additional 72 hours, Measurement of cell viability was taken at 96 hours from the initial dose (72 hours after the wash step) and normalized to data collected for cells dosed with alvocidib only. Cell viability was then assessed in a Cell titer-glo assay, according to manufacturer protocol. Cell viability was then plotted against concentration on a logarithmic scale (FIG. 2).
FIGS. 5A and 5B present data from combination treatment of Alvocidib and decitabine in MV4-11 cells. MV4-11 cells were first treated for 96 hours with alvocidib+decitabine according to the general procedures of Example 2 at the concentrations indicated in FIG. 5A. […] Here, a change of nearly 10-fold in the IC50 (μM) of decitabine with the addition of alvocidib (100 nM) was observed when alvocidib was administered prior to decitabine.

MCL-1 = MCL-1 expression by western blotting in MV4-11 cells; assay type: cell-based
Procedure: An AML cell line, MV-4-11, expresses MCL-1. MCL-1 is a key anti-apoptotic protein in MV-4-11 cells. Alvocidib, a CDK9 inhibitor, lowers the expression of MCL-1, which is already well documented in the literature. Alvocidib down-regulates MCL-1 in a dose dependent manner (FIG. 1A). The dose dependence is observed by monitoring the relative expression of MCL-1 compared to β-actin when cells are dosed with alvocidib at concentrations of 0-8 μM. MV4-11 cells were treated with Alvocidib for 16 hrs in vitro, Following treatment, cells were harvested and prepared using standard western blotting technique for immuno-detection of MCL-1 and β-actin expression.
In addition, alvocidib also down-regulates MCL-1 in a time-dependent manner (FIG. 1B). The time dependence is observed by monitoring the relative expression of MCL-1 compared top-actin over time. The relative expression of MCL-1 was measured at 0.5-48 hour time points after dosing with 80 nM of alvocidib.
MV4-11 cells were treated with 80 nM Alvocidib in vitro for the times indicated. Following treatment, cells were harvested and prepared using standard western blotting technique for immunodetection of MCL-1 and β-actin expression.

## Nc1ncn([C@H]2C[C@H](O)[C@@H](CO)O2)c(=O)n1 [decitabine]
MV 4-11 cells; MV4-11 cells, alvocidib 100 nM 24 hours pre-treatment, then decitabine 72 hours
  Change in IC50 of decitabine with the addition of alvocidib: ~10 fold

## Nc1ncn([C@@H]2O[C@H](CO)[C@@H](O)[C@H]2O)c(=O)n1 [azacitidine]
MV 4-11 cells; DMSO 24 hours, then azacitidine only 72 hours
  EC50: 1780 nM
MV 4-11 cells; alvocidib 80 nM 24 hours, then azacitidine 72 hours, normalized to alvocidib only
  EC50: 641 nM

## CN1CC[C@H](c2c(O)cc(O)c3c(=O)cc(-c4ccccc4Cl)oc23)[C@H](O)C1 [Alvocidib]
MCL-1; 80 nM, 1 hour post-treatment
  MCL-1 expression compared to β-actin: reduced MCL-1 expression
MCL-1; 80 nM, 16 hrs
  MCL-1 expression compared to β-actin: nearly completely blocked
MCL-1; 80 nM, up to 48 hours following treatment
  MCL-1 expression compared to β-actin: inhibition of expression was maintained
MCL-1; 0.1 μM, 16 hrs
  MCL-1 expression compared to β-actin: reduced MCL-1 expression
MCL-1; 1 μM, 16 hrs
  MCL-1 expression compared to β-actin: completely blocked expression
